From patent US20240002437A1, “COMPOSITIONS AND METHODS OF TREATING INFLAMMATORY LUNG DISEASES” (priority 2020, published 2024)

Assays:
[1] = test system: eNOS phosphorylation at T495; assay: Western blot of pT495-eNOS in PAEC; format: cell-based, ovine; conditions: PMA 100 nM, 10, 30 and 60 minutes
Procedure: (§1) Primary cultures of ovine pulmonary arterial endothelial cells (PAEC) were isolated as described previously (L. K. Kelly, Am J Physiol Lung Cell Mol Physiol, 286(5), L984-91 (2004)). Briefly, cells were maintained in Dulbecco's modified Eagle medium (DMEM) supplemented with 10% fetal calf serum (Hyclone, Logan, UT), antibiotics/antimycotic (500 IU Penicillin, 500 μg/ml Streptomycin, 1.25 μg/ml Amphotericin B; MediaTech, Herndon, VA) at 37° C. in a humidified atmosphere with 5% CO2 and 95% air. Cells were used for experiments between passages 9-14, seeded at ˜50% confluence, and utilized when fully confluent.
Protein extracts were prepared using lysis buffer (50 mM Tris-HCl, pH 7.6, 0.5% Triton X-100, 20% glycerol) containing HALT™ protease inhibitor cocktail (Pierce Laboratories, Rockford, IL). The extracts were then subjected to centrifugation (15,000 g for 15 min at 4° C.). Supernatant fractions were assayed for protein concentration using the Bradford reagent (Bio-Rad, Richmond, CA) then used for Western blot analyses. Protein extracts (25-50 μg) were separated on Long-Life 4-20% Tris-SDS-Hepes gels and electrophoretically transferred to IMMUNO-BLOT™ PVDF membrane (Bio-Rad Laboratories, Hercules, CA) Immunoblotting was then carried out using the appropriate antibodies in Tris-base buffered saline with 0.1% Tween 20 and 5% nonfat milk. After washing, the membranes were probed with horseradish peroxidase-conjugated goat antiserum to rabbit or mouse. Reactive bands were visualized using chemiluminescence (Super Signal West Femto; Pierce, Rockford, IL) on a LI-COR Odyssey image station (Lincoln, NE). Bands were quantified using LI-COR Image Station software. Loading was normalized by reprobing the membranes with an antibody specific to β-actin.

[2] = test system: NOS-derived superoxide; assay: NOS-derived superoxide by EPR (eNOS uncoupling) in PAEC; format: cell-based, ovine; conditions: PMA
Procedure: as §1
Superoxide levels were estimated by electron paramagnetic resonance (EPR) assay using the spin-trap compound 1-hydroxy-3-methoxycarbonyl-2,2,5,5-tetramethylpyrrolidine HCl (CMH, Axxora) as described previously. Superoxide in PAEC was trapped by incubating PAEC with 20 μl of CMH stock solution (20 mg/ml) for 1 h, followed by trypsinization and centrifugation at 500 g. The cell pellet was suspended in 35 μl DPBS and loaded into a capillary tube which was then analyzed with a MiniScope MS200 EPR machine (Magnettech, Berlin, Germany). Pre-incubating cells or tissue with 100 μM ethylisothiourea (ETU, Sigma-Aldrich) for 30 min followed by incubation with CMH measured NOS-derived superoxide. EPR spectra were analyzed using ANALYSIS v.2.02 software (Magnettech). Differences between levels of samples incubated in the presence and absence of ETU were used to determine NOS-dependent superoxide generation.

[3] = test system: mitochondrial redistribution of eNOS; assay: Immunofluorescent microscopy of eNOS mitochondrial redistribution in PAEC; format: cell-based, ovine; conditions: PMA
Procedure: as §1
PAEC were grown on cover glass for three days after reaching 100% confluence, and fixed with 4% paraformaldehyde (Thermo Fisher Scientific) for 30 min, permeabilized with 100% cold methanol at −20° C. for 5 min Cell then blocked with 1% BSA for 1 hour, and later incubated with first antibody overnight at 4° C. then secondary antibody at room temperature for 1 hour. Finally, cells were mounted on microscope slides using ProLong Glass Antifade Mountant, (Invitrogen, Carlsbad, CA, Cat #P36980). […] The images were analyzed with ImagePro Plus 7.0 (W. Casavan, Microscopy Today, 11(6), 48-50 (2003)) or ImageJ software to evaluate the colocalization of fluorescent.

[4] = test system: PAEC; assay: Mitochondrial bioenergetics (XF24 Analyzer, OCR) in PAEC; format: cell-based, ovine; conditions: PMA
Procedure: as §1
The XF24 Analyzer (Seahorse Biosciences) and XF CELL MITO STRESS™ Test Kit (#101706-100; Seahorse Biosciences) were used for the mitochondrial bioenergetic analyses. The optimum number of cells/well was determined to be 75,000/0.32 cm^2. At the end of each study, the XF24 culture microplates were incubated in a CO2-free XF prep station at 37° C. for 45 min to allow temperature and pH calibration. Subsequently, each well was sequentially injected Oligomycin (1 μM final concentration), carbonyl cyanide 4-(trifluoromethoxy) phenylhydrazone (FCCP, 1 μM final concentration), and Rotenone+antimycin A (1 μM final concentration of each) and measured the oxygen consumption rate (OCR). These agents were used to determine basal mitochondrial respiration, reserve respiratory capacity and maximal respiratory capacity measurements in pmols/min of oxygen consumed.

[5] = target: T1, TRPV4 (Mus musculus, UniProt Q9EPK8); conditions: mice treated with the TRPV4 antagonist; literature (Yin 2016); only protective if given preventatively; cited from earlier work
T1 construct: host or cells: mice (lung), cited studies
T1 sequence (Q9EPK8 whole entry): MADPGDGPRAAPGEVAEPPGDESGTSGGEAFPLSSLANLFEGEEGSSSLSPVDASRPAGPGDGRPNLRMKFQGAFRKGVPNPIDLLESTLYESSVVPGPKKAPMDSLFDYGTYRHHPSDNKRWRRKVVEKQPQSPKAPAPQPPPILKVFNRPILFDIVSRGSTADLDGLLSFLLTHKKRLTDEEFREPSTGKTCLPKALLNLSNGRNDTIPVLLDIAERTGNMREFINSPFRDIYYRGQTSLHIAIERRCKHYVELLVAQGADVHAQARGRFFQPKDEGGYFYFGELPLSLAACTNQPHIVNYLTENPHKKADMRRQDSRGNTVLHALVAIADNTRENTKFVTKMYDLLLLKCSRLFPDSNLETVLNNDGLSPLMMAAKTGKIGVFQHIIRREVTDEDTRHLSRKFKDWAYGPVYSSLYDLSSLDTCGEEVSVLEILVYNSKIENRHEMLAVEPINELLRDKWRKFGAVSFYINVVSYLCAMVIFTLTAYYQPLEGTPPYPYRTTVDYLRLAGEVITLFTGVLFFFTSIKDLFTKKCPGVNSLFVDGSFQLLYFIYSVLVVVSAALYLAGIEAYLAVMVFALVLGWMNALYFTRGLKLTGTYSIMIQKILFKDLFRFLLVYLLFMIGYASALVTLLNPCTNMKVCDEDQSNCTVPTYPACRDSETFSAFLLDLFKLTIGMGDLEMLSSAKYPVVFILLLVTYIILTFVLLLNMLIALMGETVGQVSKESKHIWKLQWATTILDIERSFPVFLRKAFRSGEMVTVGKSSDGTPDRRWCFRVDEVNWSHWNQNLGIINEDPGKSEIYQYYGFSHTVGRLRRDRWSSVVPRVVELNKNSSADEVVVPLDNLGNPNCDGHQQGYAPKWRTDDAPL

SMILES	pT495-eNOS levels [1]	eNOS uncoupling (NOS derived superoxide) [2]	mitochondrial redistribution of eNOS [3]	mitochondrial bioenergetics (OCR, reserve and maximal respiratory capacities) [4]	protection against acid-induced ALI [5]
CCCCCCCCCCCCCC(=O)O[C@@H]1[C@@H](C)[C@@]2(O)[C@@H](C=C(CO)C[C@]3(O)C(=O)C(C)=C[C@@H]23)[C@@H]2C(C)(C)[C@]12OC(C)=O [PMA, Phorbol 12-myristate 13-acetate]	increases in pT95-eNOS levels	eNOS uncoupling	induced the mitochondrial redistribution of eNOS	disruption of mitochondrial bioenergetics	
O=C(NC1(c2ccccc2)CC1)c1c(CN2CCC(N3CCCCC3)CC2)c(-c2cccc(C(F)(F)F)c2)nc2cc(Br)ccc12 [GSK2193874]					protected against acid-induced ALI
